Laboratory results: paper PMC8037161 (International Journal of Molecular Sciences, 2021)
Where “and” joins values, the source holds several entries; their conditions need not be identical. Equal values may be shown once. Read-outs that look alike come from different tables or passages of the source.

Experiments:
calf thymus DNA [1] = experiment: Ethidium displacement assay, apparent binding constant, calf thymus DNA; settings: apparent association constant, ± 0.2 × 10^5 M^−1
Description: (§1) The fluorescence of DNA solutions (calf thymus DNA, T4 coliphage DNA, poly(dA-dT)2 and poly(dG-dC)2 with the investigated compound (final concentrations 10, 50, 100 μM) was measured by fluorescence spectrophotometer Infinite M200 TECAN at room temperature according to the procedure described above. The determination of DNA-binding constants was described in previous articles. The apparent binding constant was calculated from KEtBr [EtBr] = Kapp [drug], where [drug] = the concentration of the tested compound at 50% reduction of fluorescence and KEtBr and [EtBr] are known. The results are reported as a percentage of fluorescence decreases in Table 1.

T4 coliphage DNA [2] = experiment: Ethidium displacement assay, apparent binding constant, T4 coliphage DNA; settings: apparent association constant, ± 0.2 × 10^5 M^−1
From the text: The values of binding constants in the range of 0.7–6.4 × 10^5 M^−1 for T4 coliphage DNA for derivatives 1–18 was evidence of their minor-groove selectivity, because the major groove of T4 coliphage DNA is blocked by a-glycosylation of the 5-(hydroxymethyl)cytidine residues. […] All of the compounds bound to AT-rich sequences weaker than netropsin but some of them bound stronger to GC-rich sequences, e.g., compounds 3, 6, and 10.
as §1

[3] = tested on: poly(dG-dC)2 (DNA, polymer) GC; experiment: ethidium bromide displacement, fluorescence; settings: apparent; room temperature; ethidium bromide displaced; compound 10, 50, 100 µM
poly(dA-dT)2 [4] = experiment: Ethidium displacement assay, apparent binding constant, poly(dA-dT)2; settings: apparent association constant, ± 0.2 × 10^5 M^−1
Description: as §1

[5] = tested on: poly(dA-dT)2 (DNA, polymer) AT; experiment: ethidium bromide displacement, fluorescence; settings: apparent; room temperature; ethidium bromide displaced; compound 10, 50, 100 µM
poly(dG-dC)2 [6] = experiment: Ethidium displacement assay, apparent binding constant, poly(dG-dC)2; settings: apparent association constant, ± 0.2 × 10^5 M^−1
Description: as §1

pBR322 plasmid [7] = experiment: Ethidium bromide assay, DNA-binding effect on plasmid pBR322; settings: % fluorescence relative to controls
From the text: Fluorescence readings are reported as % fluorescence relative to the controls.

recombinant human DHFR = target: T1, recombinant human DHFR (Homo sapiens, UniProt P00374); experiment: Dihydrofolate reductase (DHFR) inhibition assay; assay type: biochemical; settings: assay kit
T1 construct: purchased
T1 sequence (P00374 1-187): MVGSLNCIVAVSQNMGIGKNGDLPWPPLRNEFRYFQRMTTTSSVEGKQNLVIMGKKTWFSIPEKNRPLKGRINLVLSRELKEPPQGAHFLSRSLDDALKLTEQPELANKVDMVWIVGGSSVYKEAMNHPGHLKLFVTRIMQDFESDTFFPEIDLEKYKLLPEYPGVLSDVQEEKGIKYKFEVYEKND

pBR322 plasmid [8] = settings: previous study; cited from earlier work
T4 coliphage DNA [9] = tested on: T4 coliphage DNA; parameters: method as in earlier work; settings: reference values; KEtBr known (ref 25, 47); NT ref 48 (table row: ref 45); cited from earlier work
poly(dA-dT)2 [10] = tested on: poly(dA-dT)2; parameters: method as in earlier work; settings: reference values; KEtBr known (ref 25, 47); NT ref 48 (table row: ref 45); cited from earlier work
poly(dG-dC)2 [11] = tested on: poly(dG-dC)2; parameters: method as in earlier work; settings: reference values; KEtBr known (ref 25, 47); NT ref 48 (table row: ref 45); cited from earlier work
calf thymus DNA [12] = tested on: calf thymus DNA; parameters: method as in earlier work; settings: reference values; KEtBr known (ref 25, 47); NT ref 48 (table row: ref 45); cited from earlier work

| Structure (SMILES) | Kapp [3] | Kapp Poly (dA-dT)2 (poly(dA-dT)2 [4]) [M⁻¹] | Kapp [5] | Kapp poly (dG-dC)2 (poly(dG-dC)2 [6]) [M⁻¹] | Decrease of Fluorescence (pBR322 plasmid [7]) | IC50 (recombinant human DHFR) [µM] | Kapp Calf Thymus DNA (calf thymus DNA [1]) [M⁻¹] | Kapp T4 DNA (T4 coliphage DNA [2]) [M⁻¹] | DNA-binding activity expressed as % decrease of fluorescence (pBR322 plasmid [8]) [%] | Kapp T4 DNA (T4 coliphage DNA [9]) [M⁻¹] | Kapp Poly (dA-dT)2 (poly(dA-dT)2 [10]) | Kapp poly (dG-dC)2 (poly(dG-dC)2 [11]) [M⁻¹] | Kapp Calf Thymus DNA (calf thymus DNA [12]) [M⁻¹] |
| --- | --- | --- | --- | --- | --- | --- | --- | --- | --- | --- | --- | --- | --- |
| COc1cc(OC)cc(C(=O)Nc2ccc(N)nc2)c1 [Compound 7] | 2.3 ± 0.2 × 10^5 M^−1 | 340000 | 3.4 ± 0.2 × 10^5 M^−1 | 230000 | 66.89% | 3.02 ± 0.09 | 410000 | 210000 | – | – | – | – | – |
| COc1cc(NC(=O)/C=C/c2cc(OC)c(OC)c(OC)c2)ccc1N [Compound 14] | 4.2 ± 0.2 × 10^5 M^−1 | 890000 | 8.9 ± 0.2 × 10^5 M^−1 | 420000 | 43.85% | 0.97 ± 0.02 | 490000 | 290000 | – | – | – | – | – |
| COc1ccc(C(=O)Nc2ccc(N)nc2)cc1OC [Compound 8] | 3.5 ± 0.2 × 10^5 M^−1 | 310000 | 3.1 ± 0.2 × 10^5 M^−1 | 350000 | 56.58% | 10.59 ± 0.06 | 250000 | 240000 | – | – | – | – | – |
| COc1cc(C(=O)Nc2ccc(N)nc2)cc(OC)c1OC [Compound 6] | 4.8 ± 0.2 × 10^5 M^−1 | 250000 | 2.5 ± 0.2 × 10^5 M^−1 | 480000 | 50.44% | 0.99 ± 0.01 | 400000 | 130000 | – | – | – | – | – |
| COc1cccc(C(=O)Nc2ccc(N)nc2)c1 [Compound 9] | 1.5 ± 0.2 × 10^5 M^−1 | 390000 | 3.9 ± 0.2 × 10^5 M^−1 | 150000 | 64.89% | 56.05 ± 0.08 | 390000 | 120000 | – | – | – | – | – |
| COc1cc(C(=O)Nc2ccc(N)c(I)c2)cc(OC)c1OC [Compound 1] | 3.6 ± 0.2 × 10^5 M^−1 | 310000 | 3.1 ± 0.2 × 10^5 M^−1 | 360000 | 74.54% | 21.89 ± 0.03 | 300000 | 160000 | – | – | – | – | – |
| COc1cc(CCC(=O)Nc2cnc(N)nc2)cc(OC)c1OC [C] | – | – | – | – | – | – | – | – | 69.92 | – | – | – | – |
| COc1cc(C(=O)Nc2ccc(F)c(N)c2)cc(OC)c1OC [Compound 2] | 3.0 ± 0.2 × 10^5 M^−1 | 190000 | 1.9 ± 0.2 × 10^5 M^−1 | 300000 | 52.89% | 1.11 ± 0.02 | 260000 | 260000 | – | – | – | – | – |
| COc1cc(/C=C/C(=O)Nc2ccc(Cl)c(N)c2)cc(OC)c1OC [Compound 16] | 3.8 ± 0.2 × 10^5 M^−1 | 270000 | 2.7 ± 0.2 × 10^5 M^−1 | 380000 | 57.77% | 0.88 ± 0.02 | 130000 | 310000 | – | – | – | – | – |
| COc1cc(/C=C/C(=O)Nc2cnc(N)nc2)cc(OC)c1OC [Compound 12] | 2.1 ± 0.2 × 10^5 M^−1 | 150000 | 1.5 ± 0.2 × 10^5 M^−1 | 210000 | 60.11% | 26.01 ± 0.02 | 210000 | 280000 | – | – | – | – | – |
| CC[n+]1c(-c2ccccc2)c2cc(N)ccc2c2ccc(N)cc21 [EtBr, Ethidium bromide] | – | – | – | – | 100% | – | – | – | – | 1e+07 | 95^b* × 10^5 M^−1 | 9.9e+06 | 1e+07 |
| COc1cc(Cc2cnc(N)nc2N)cc(OC)c1OC [TMP, 2,4-diamino-5-(3,4,5-trimethoxybenzyl) pyrimidine, reference compound] | – | – | – | – | 100% | – | – | – | – | – | – | – | – |

Continued, in another order:

| Kapp [3] | Kapp Poly (dA-dT)2 (poly(dA-dT)2 [4]) [M⁻¹] | Kapp [5] | Kapp poly (dG-dC)2 (poly(dG-dC)2 [6]) [M⁻¹] | Decrease of Fluorescence (pBR322 plasmid [7]) | IC50 (recombinant human DHFR) [µM] | Structure (SMILES) | Kapp Calf Thymus DNA (calf thymus DNA [1]) [M⁻¹] | Kapp T4 DNA (T4 coliphage DNA [2]) [M⁻¹] | DNA-binding activity expressed as % decrease of fluorescence (pBR322 plasmid [8]) [%] | Kapp T4 DNA (T4 coliphage DNA [9]) [M⁻¹] | Kapp Poly (dA-dT)2 (poly(dA-dT)2 [10]) | Kapp poly (dG-dC)2 (poly(dG-dC)2 [11]) [M⁻¹] | Kapp Calf Thymus DNA (calf thymus DNA [12]) [M⁻¹] |
| --- | --- | --- | --- | --- | --- | --- | --- | --- | --- | --- | --- | --- | --- |
| 2.5 ± 0.2 × 10^5 M^−1 | 50000 | 0.5 ± 0.2 × 10^5 M^−1 | 250000 | 41.68% | 1.22 ± 0.05 | COc1cc(/C=C/C(=O)Nc2ccc(F)c(N)c2)cc(OC)c1OC [Compound 17] | 180000 | 290000 | – | – | – | – | – |
| 3.4 ± 0.2 × 10^5 M^−1 | 400000 | 4.0 ± 0.2 × 10^5 M^−1 | 340000 | 49.9% and 49.89% | 0.89 ± 0.07 | COc1cc(/C=C/C(=O)Nc2ccc(N)cc2)cc(OC)c1OC [Compound 13] | 190000 | 290000 | – | – | – | – | – |
| 2.5 ± 0.2 × 10^5 M^−1 | 260000 | 2.6 ± 0.2 × 10^5 M^−1 | 250000 | 54.54% | 55.32 ± 0.02 | COc1cccc(C(=O)Nc2cnc(N)nc2)c1 [Compound 11] | 120000 | 310000 | – | – | – | – | – |
| 2.4 ± 0.2 × 10^5 M^−1 | 310000 | 3.1 ± 0.2 × 10^5 M^−1 | 240000 | 68.82% | 12.01 ± 0.01 | COc1cc(/C=C/C(=O)Nc2ccc(N)nc2)cc(OC)c1OC [Compound 15] | 190000 | 230000 | – | – | – | – | – |
| 5.3 ± 0.2 × 10^5 M^−1 | 430000 | 4.3 ± 0.2 × 10^5 M^−1 | 530000 | 68.85% | 10.13 ± 0.09 | COc1cc(C(=O)Nc2cc(N)ccc2F)cc(OC)c1OC [Compound 3] | 170000 | 410000 | – | – | – | – | – |
| – | – | – | – | 100% | – | CN(Cc1cnc2nc(N)nc(N)c2n1)c1ccc(C(=O)N[C@@H](CCC(=O)O)C(=O)O)cc1 [MTX, methotrexate, reference compound] | – | – | – | – | – | – | – |
| 4.7 ± 0.2 × 10^5 M^−1 | 110000 | 1.1 ± 0.2 × 10^5 M^−1 | 470000 | 70.11% | 19.2 ± 0.01 | COc1cc(OC)cc(C(=O)Nc2cnc(N)nc2)c1 [Compound 10] | 260000 | 70000 | – | – | – | – | – |
| 2.3 ± 0.2 × 10^5 M^−1 | 130000 | 1.3 ± 0.2 × 10^5 M^−1 | 230000 | 72.56% | 30.02 ± 0.02 | COc1cc(C(=O)Nc2cc(N)ccc2Cl)cc(OC)c1OC [Compound 5] | 270000 | 100000 | – | – | – | – | – |
| 1.3 ± 0.2 × 10^5 M^−1 | 210000 | 2.1 ± 0.2 × 10^5 M^−1 | 130000 | 87.99% | 5.02 ± 0.03 | COc1cc(C(=O)Nc2ccc(N)c(Cl)c2)cc(OC)c1OC [Compound 4] | 230000 | 230000 | – | – | – | – | – |
| 4.6 ± 0.2 × 10^5 M^−1 | 450000 | 4.5 ± 0.2 × 10^5 M^−1 | 460000 | 42.99% | 2.09 ± 0.04 | COc1cc(/C=C/C(=O)Nc2ccc(N)c(I)c2)cc(OC)c1OC [Compound 18] | 580000 | 640000 | – | – | – | – | – |
